Consider 30 molecules from patent publication US20220081421A1, “ANTIBACTERIAL COMPOUNDS” (Forge Therapeutics, Inc., priority 2018, published 2022).

Converted amounts (≈) assume the structure as drawn.

What is called MIC is the smallest concentration in the dilution series that meets the test's criterion for growth inhibition.

One test relates to E. coli. Kind of test: MIC by broth microdilution (CLSI), E. coli. It counts as cell-based. Particulars: broth microdilution, cation adjusted Mueller-Hinton Broth, 35° C., 18-24 h; for MIC: Escherichia coli, read-out: E. coli MIC. How it is done:
(§1) Minimal inhibitory concentrations (MIC) were determined by the broth microdilution method in accordance with the Clinical and Laboratory Standards Institute (CLSI) guidelines. In brief, organism suspensions were adjusted to a 0.5 McFarland standard to yield a final inoculum between 3×10^5 and 7×10^5 colony-forming units (CFU)/mL. Drug dilutions and inocula were made in sterile, cation adjusted Mueller-Hinton Broth (Beckton Dickinson). An inoculum volume of 100 μL was added to wells containing 100 μL of broth with 2-fold serial dilutions of drug. All inoculated microdilution trays were incubated in ambient air at 35° C. for 18-24 h. Following incubation, the lowest concentration of the drug that prevented visible growth (OD600 nm<0.05) was recorded as the MIC. Performance of the assay was monitored by the use of laboratory quality-control strains and levofloxacin, a compound with a defined MIC spectrum, in accordance with CLSI guidelines.
A general note: Broth dilution looks for growth in wells or tubes with falling amounts of substance.

Another test concerns K. pneumoniae. Kind of test: MIC by broth microdilution (CLSI), K. pneumoniae. The settings on record: broth microdilution, cation adjusted Mueller-Hinton Broth, 35° C., 18-24 h; for MIC: Klebsiella pneumoniae, read-out: K. pneumoniae MIC. It counts as cell-based. How it is done:
as §1

On to `Nc1ccc(C#Cc2ccc(CC(C(=O)NCC(F)F)c3nc[nH]c(=O)c3O)cc2)cn1` (centres unmarked) [Compound 28, 3-(4-((6-aminopyridin-3-yl)ethynyl)phenyl)-N-(2,2-difluoroethyl)-2-(5-hydroxy-6-oxo-1,6-dihydropyrimidin-4-yl)propanamide], for which the MIC was 8 to 32 µg/mL (≈ 18.2 to 72.8 µM) in the test with E. coli and above 32 µg/mL in the test on K. pneumoniae.

As to `O=C(Nc1ccc(C#CC#Cc2ccccc2)cc1)c1occc(=O)c1O` [Compound 130, 3-hydroxy-4-oxo-N-(4-(phenylbuta-1,3-diyn-1-yl)phenyl)-4H-pyran-2-carboxamide], the MIC in the test with E. coli was above 32 µg/mL.

`N#CCC(Cc1ccc(C#Cc2ccc(CN3CCOCC3)cc2)cc1)c1nc[nH]c(=O)c1O` (centres unmarked) [Compound 106, 3-(5-hydroxy-6-oxo-1,6-dihydropyrimidin-4-yl)-4-(4-((4-(morpholinomethyl)phenyl)ethynyl)phenyl)butanenitrile]: the MIC with E. coli and with K. pneumoniae was 1 to 8 µg/mL (≈ 2.2 to 17.6 µM) throughout.

As to `O=C1N(CCc2nc[nH]c(=O)c2O)Cc2cc(Br)cn21` [Compound 69, 6-bromo-2-(2-(5-hydroxy-6-oxo-1,6-dihydropyrimidin-4-yl)ethyl)-1,2-dihydro-3H-pyrrolo[1,2-c]imidazol-3-one], the MIC with E. coli and with K. pneumoniae was above 32 µg/mL in each case.

`CC(=O)NCC(Cc1ccc(C#Cc2ccc(CN3CCOCC3)cc2)cc1)c1cc[nH]c(=O)c1O` (centres unmarked) [Compound 1, N-(2-(3-hydroxy-2-oxo-1,2-dihydropyridin-4-yl)-3-(4-((4-(morpholinomethyl)phenyl)ethynyl)phenyl)propyl) acetamide]: the minimum inhibitory concentration (MIC) with E. coli is above 32 µg/mL.

In the case of `Cn1ccc(=O)c(O)c1CNc1ccc(C#Cc2ccc(CN3CCOCC3)cc2)cc1` [Compound 2, 3-hydroxy-1-methyl-2-(((4-((4-(morpholinomethyl)phenyl)ethynyl)phenyl)amino)methyl) pyridin-4(1H)-one], the MIC with E. coli was in the range of 8 to 32 µg/mL (≈ 18.6 to 74.5 µM).

As to `N#CCC(Cc1ccc(C#Cc2ccc(CN[C@H]3CCOC3)cc2)cc1)c1nc[nH]c(=O)c1O` (stereo partly drawn) [Compound 107, 3-(5-hydroxy-6-oxo-1,6-dihydropyrimidin-4-yl)-4-(4-((4-((((S)-tetrahydrofuran-3-yl)amino)methyl)phenyl)ethynyl)phenyl)butanenitrile], the MIC in the test on E. coli is 1 to 8 µg/mL (≈ 2.2 to 17.6 µM); in the test with K. pneumoniae, 8 to 32 µg/mL (≈ 17.6 to 70.4 µM).

Consider `O=C(OC1CCSC1)C(Cc1ccc(C#Cc2ccc(CN3CCOCC3)cc2)cc1)c1nc[nH]c(=O)c1O` (centres unmarked) [Compound 115, tetrahydrothiophen-3-yl 2-(5-hydroxy-6-oxo-1,6-dihydropyrimidin-4-yl)-3-(4-((4-(morpholinomethyl)phenyl)ethynyl)phenyl)propanoate], for which the MIC was 8 to 32 µg/mL (≈ 14.7 to 58.6 µM) in the test on E. coli and above 32 µg/mL in the test on K. pneumoniae.

Regarding `OCC(Cc1nncc(O)c1O)c1ccc(C#Cc2ccc(CN[C@H]3CCOC3)cc2)cc1` (single isomer, unassigned) [Compound 101], the “E. coli MIC” value in the test on E. coli is “B (B: >1 μg/mL to ≤8.0 μg/mL)”. Moreover, the “K. pneumoniae MIC” value in the test with K. pneumoniae is listed as “B (B: >1 μg/mL to ≤8.0 μg/mL)”.

Take `O=C(NCCc1nc[nH]c(=O)c1O)n1cc(C#Cc2ccc(CN3CCOCC3)cc2)cc1CO` [Compound 79, N-(2-(5-hydroxy-6-oxo-1,6-dihydropyrimidin-4-yl)ethyl)-2-(hydroxymethyl)-4-((4-(morpholinomethyl)phenyl)ethynyl)-1H-pyrrole-1-carboxamide]: the MIC in the test with E. coli is 8 to 32 µg/mL (≈ 16.8 to 67 µM); with K. pneumoniae it was above 32 µg/mL.

For the molecule `O=c1[nH]cnc(CCc2ccc(C#Cc3ccc(CNC4CCOC4)cc3)cn2)c1O` (centres unmarked) [Compound 20, 5-hydroxy-6-(2-(5-((4-(((tetrahydrofuran-3-yl)amino)methyl)phenyl)ethynyl)pyridin-2-yl)ethyl)pyrimidin-4(3H)-one], the MIC was below 1 µg/mL in the test with E. coli and 8 to 32 µg/mL (≈ 19.2 to 76.8 µM) in the test with K. pneumoniae.

In the case of `CS(=O)(=O)C(Cc1ccc(C#Cc2ccc(CN3CCOCC3)cc2)cc1)c1occc(=O)c1O` (centres unmarked) [Compound 120, 3-hydroxy-2-(l1-(methylsulfonyl)-2-(4-((4-(morpholinomethyl)phenyl)ethynyl)phenyl)ethyl)-4H-pyran-4-one], the MIC in the test with E. coli is above 32 µg/mL.

In the case of `O=c1[nH]cnc(CN(CCO)c2ccc(C#Cc3ccc(CN4CCOCC4)cc3)cc2)c1O` [Compound 127, 5-hydroxy-6-(((2-hydroxyethyl)(4-((4-(morpholinomethyl)phenyl)ethynyl)phenyl)amino)methyl) pyrimidin-4(3H)-one], the minimum inhibitory concentration (MIC) in the test on E. coli was above 32 µg/mL.

Consider `O=c1[nH]cnc(CCc2ncc(C#Cc3ccc(CN4CCOCC4)cc3)cn2)c1O` [Compound 21, 5-hydroxy-6-(2-(5-((4-(morpholinomethyl)phenyl)ethynyl)pyrimidin-2-yl)ethyl)pyrimidin-4(3H)-one], for which, in the test on E. coli, the MIC was in the range of 1 to 8 µg/mL (≈ 2.4 to 19.2 µM).

With `O=c1[nH]cnc(CNc2ccc(C#Cc3ccc(-c4nnn[nH]4)cc3)cc2)c1O` [Compound 129, 6-(((4-((4-(1H-tetrazol-5-yl)phenyl)ethynyl)phenyl)amino)methyl)-5-hydroxypyrimidin-4(3H)-one], the MIC in the test on E. coli is above 32 µg/mL.

Regarding `O=c1[nH]cnc(CS(=O)(=O)c2ccc(C#Cc3ccc(CN4CCOCC4)cc3)cc2)c1O` [Compound 118, 5-hydroxy-6-(((4-((4-(morpholinomethyl)phenyl)ethynyl)phenyl)sulfonyl)methyl) pyrimidin-4(3H)-one], the MIC in the test with E. coli lay in the range of 8 to 32 µg/mL (≈ 17.2 to 68.7 µM).

Regarding `CNC(=O)C(Cc1ccc(C#Cc2ccc(CN3CCOCC3)cc2)cc1)n1cncc(O)c1=O` (centres unmarked) [Compound 4, 2-(5-hydroxy-6-oxopyrimidin-1(6H)-yl)-N-methyl-3-(4-((4-(morpholinomethyl)phenyl)ethynyl)phenyl)propanamide], the MIC in the test with E. coli was above 32 µg/mL.

For `CNC(=O)C(Cc1ccc(C#Cc2ccc(CN3CCOCC3)cc2)cc1)c1nccc(O)c1O` (centres unmarked) [Compound 12, 2-(3,4-dihydroxypyridin-2-yl)-N-methyl-3-(4-((4-(morpholinomethyl)phenyl)ethynyl)phenyl)propanamide], in the test with E. coli, the MIC lay in the range of 8 to 32 µg/mL (≈ 17 to 67.9 µM).

`O=c1[nH]cnc(CNc2ccc(C#Cc3ccc(-c4ncco4)cc3)cc2)c1O` [Compound 128, 5-hydroxy-6-(((4-((4-(oxazol-2-yl)phenyl)ethynyl)phenyl)amino)methyl)pyrimidin-4(3H)-one]: the MIC with E. coli was above 32 µg/mL.

For the molecule `NC(=O)C(Cc1ccc(C#Cc2ccc(CN3CCOCC3)cc2)cc1)n1cncc(O)c1=O` (centres unmarked) [Compound 5, 2-(5-hydroxy-6-oxopyrimidin-1(6H)-yl)-3-(4-((4-(morpholinomethyl)phenyl)ethynyl)phenyl)propanamide], the MIC in the test with E. coli was above 32 µg/mL.

As for `CS(=O)(=O)NCC(Cc1ccc(C#Cc2ccc(CN3CCOCC3)cc2)cc1)n1cncc(O)c1=O` (centres unmarked) [Compound 7, N-(2-(5-hydroxy-6-oxopyrimidin-1(6H)-yl)-3-(4-((4-(morpholinomethyl)phenyl)ethynyl)phenyl)propyl) methanesulfonamide], in the test with E. coli, the MIC was above 32 µg/mL.

As to `C=CCC(Nc1ccc(C#Cc2ccc(CN3CCOCC3)cc2)cc1)c1occc(=O)c1O` (centres unmarked) [Compound 126, 3-hydroxy-2-(1-((4-((4-(morpholinomethyl)phenyl)ethynyl)phenyl)amino)but-3-en-1-yl)-4H-pyran-4-one], in the test on E. coli, the MIC was above 32 µg/mL.

As for `NC(=O)C(Cc1ccc(C#Cc2ccc(CN3CCOCC3)cc2)cc1)n1cccc(O)c1=O` (centres unmarked) [Compound 6, 2-(3-hydroxy-2-oxopyridin-1(2H)-yl)-3-(4-((4-(morpholinomethyl)phenyl)ethynyl)phenyl)propanamide], in the test on E. coli, the MIC is above 32 µg/mL.

Take `O=c1ccoc(CS(=O)(=O)c2ccc(C#Cc3ccc(CN4CCOCC4)cc3)cc2)c1O` [Compound 124, 3-hydroxy-2-(((4-((4-(morpholinomethyl)phenyl)ethynyl)phenyl)sulfonyl)methyl)-4H-pyran-4-one]: the MIC with E. coli was above 32 µg/mL.

For `CC(=O)NCC(Cc1ccc(C#Cc2ccc(CN3CCOCC3)cc2)cc1)n1cncc(O)c1=O` (centres unmarked) [Compound 3, N-(2-(5-hydroxy-6-oxopyrimidin-1(6H)-yl)-3-(4-((4-(morpholinomethyl)phenyl)ethynyl)phenyl)propyl) acetamide], the MIC in the test with E. coli is above 32 µg/mL.

With `O=c1[nH]cnc(C(Cc2ccc(C#Cc3ccc(CN4CCOCC4)cc3)cc2)Cn2cnnn2)c1O` (centres unmarked) [Compound 119, 5-hydroxy-6-(1-(4-((4-(morpholinomethyl)phenyl)ethynyl)phenyl)-3-(1H-tetrazol-1-yl)propan-2-yl)pyrimidin-4(3H)-one], the MIC with E. coli is above 32 µg/mL.

`O=c1[nH]cnc(Cn2ccc(C#Cc3ccc(CN4CCOCC4)cc3)cc2=O)c1O` [Compound 44, 5-hydroxy-6-((4-((4-(morpholinomethyl)phenyl)ethynyl)-2-oxopyridin-1(2H)-yl)methyl)pyrimidin-4(3H)-one]: in the test with E. coli, the MIC lay within 8 to 32 µg/mL (≈ 19.1 to 76.5 µM).

With `O=C(O)c1ccc(C#Cc2ccc(NCc3occc(=O)c3O)cc2)cc1` [Compound 123, 4-((4-(((3-hydroxy-4-oxo-4H-pyran-2-yl)methyl)amino)phenyl)ethynyl)benzoic acid], the MIC in the test with E. coli was above 32 µg/mL.

Take `N#CC(Cc1ccc(C#Cc2ccc(CN3CCOCC3)cc2)cc1)c1cc[nH]c(=O)c1O` (centres unmarked) [Compound 121, 2-(3-hydroxy-2-oxo-1,2-dihydropyridin-4-yl)-3-(4-((4-(morpholinomethyl)phenyl)ethynyl)phenyl)propanenitrile]: in the test on E. coli, the MIC is above 32 µg/mL.

Consider `O=C1N(Cc2nc[nH]c(=O)c2O)Cc2cc(C#Cc3ccc(CN4CCOCC4)cc3)cn21` [Compound 81, 2-((5-hydroxy-6-oxo-1,6-dihydropyrimidin-4-yl)methyl)-6-((4-(morpholinomethyl)phenyl)ethynyl)-1,2-dihydro-3H-pyrrolo[1,2-c]imidazol-3-one], for which, in the test on E. coli, the minimal inhibitory concentration (MIC) lay in the range of 8 to 32 µg/mL (≈ 18 to 71.8 µM).
